Series [1] is described as follows: pH-dependent solubility of the beneficial agent. The series is classed as physicochemical. As for the experimental part:
The formulation of the instant invention was prepared using 1-(3-chlorophenyl)-4-[1-(4-cyanobenzyl)-5-imidazolyl methyl]-2-piperazinone is used as the beneficial agent. The solubility of the beneficial agent decreases from about 1 g/mL at pH 1 to about 70 μg/mL at pH 7, with the solubility cliff occurring at about pH 3.5.

A short description of series [2]: in vitro release of the drug from the tablets, USP Apparatus II. The series is classed as physicochemical. The note with it: for release rate / release mechanism: without a pH modulator. The method, then:
The in vitro release of the drug from the tablets prepared as above was determined using USP Apparatus II, paddle speed 75 rpm, at 37° C. in 900 ml of dissolution media with pH values 1.2, 1.7 and 6.8. The pH 1.2 and 1.7 media consisted of 0.1N HCl solution adjusted to the appropriate pH by the addition of sodium hydroxide. The pH 6.8 medium consisted of 0.7% sodium dodecyl sulfate in 10 mM phosphate buffer.

≈ marks a conversion by molar mass, not a printed value.

Regarding `N#Cc1ccc(Cn2cncc2CN2CCN(c3cccc(Cl)c3)C(=O)C2)cc1` [1-(3-chlorophenyl)-4-[1-(4-cyanobenzyl)-5-imidazolylmethyl]-2-piperazinone], in series [1], the “solubility cliff (pH at which it occurs)” value was roughly 3.5 pH. Also, the “solubility (in words)” value was “very soluble” in series [1] (low pH levels (less than about 2)) and “practically insoluble” in series [1] (near neutral pH levels (greater than about 5)). Besides, the solubility is roughly 1000 mg/mL (≈ 2460 mM) in series [1] (pH 1, simulated gastric fluid) and roughly 0.07 mg/mL (≈ 0.172 mM) in series [1] (pH 7, aqueous buffer). Also, the release rate entry in series [2] (with a pH modulator, over a range of pH levels (FIG. 2)) is on record as “relatively similar over a range of pH levels”. In addition, the “release rate / release mechanism” value is “controlled by the gel extrusion mechanism” in series [2] (media pH about 2.2 to about 6.8 (FIG. 1)); “dominated by dissolution and diffusion” in series [2] (pH about 1.2 (FIG. 1)); “both the dissolution/diffusion and gel extrusion mechanisms are repressed” in series [2] (pH about 1.7 (FIG. 1)).

Usually solubility stands for the dissolved amount per volume that the medium holds. A lower solubility goes with little dissolved substance.

The values are drawn from patent publication US20020136744A1, “Sustained release drug dispersion delivery device” (Merck & Co., Inc., priority 1999, published 2002).
